Source: PubChem BioAssay AID1963850 (Molecular Pharmacology Branch, DTP, NCI, 2024)

Tested on: 192522-019-R-J2-PDC complex tumor spheroid viability
Assay: Anticancer human tumor 192522-019-R-J2-PDC patient-derived colon adenocarcinoma cell line growth inhibition [POLQ]
Details: for IC50: curve of first compound; for viability, T/C: stronger effect = lower value
How it was run: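 Patient-derived tumour cells were co-cultured with HUVEC and mesenchymal stem cells as multicellular spheroids at 37 °C. They were treated with POLQ inhibitors (novobiocin, ART-558, RP6685) alone or combined with other agents. Top concentrations were at or near clinical Cmax (otherwise 10 microM; SN-38 at 1 microM), decreasing in half-log steps.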

[1] = second compound 0.0316 µM, first compound 0.0316 µM
[2] = second compound 0.0316 µM, first compound 0.1 µM
[3] = second compound 0.0316 µM, first compound 0.316 µM
[4] = second compound 0.0316 µM, first compound 1 µM
[5] = second compound 0.1 µM, first compound 0.0316 µM
[6] = second compound 0.1 µM, first compound 0.1 µM
[7] = second compound 0.1 µM, first compound 0.316 µM
[8] = second compound 0.1 µM, first compound 1 µM
[9] = second compound 0.316 µM, first compound 0.0316 µM
[10] = second compound 0.316 µM, first compound 0.1 µM
[11] = second compound 0.316 µM, first compound 0.316 µM
[12] = second compound 0.316 µM, first compound 1 µM
[13] = second compound 1 µM, first compound 0.0316 µM
[14] = second compound 1 µM, first compound 0.1 µM
[15] = second compound 1 µM, first compound 0.316 µM
[16] = second compound 1 µM, first compound 1 µM
[17] = second compound 3.16 µM, first compound 0.0316 µM
[18] = second compound 3.16 µM, first compound 0.1 µM
[19] = second compound 3.16 µM, first compound 0.316 µM
[20] = second compound 3.16 µM, first compound 1 µM
[21] = second compound 10 µM, first compound 0.0316 µM
[22] = second compound 10 µM, first compound 0.1 µM
[23] = second compound 10 µM, first compound 0.316 µM
[24] = second compound 10 µM, first compound 1 µM
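Note: spheroids exposed to drugs for seven days before reading.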
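Throughout, for viability, T/C: 100% = DMSO vehicle control viability in luminescence.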

## C=CCn1c(=O)c2cnc(Nc3ccc(N4CCN(C)CC4)cc3)nc2n1-c1cccc(C(C)(C)O)n1 + Cc1cccc(N(C)C(=O)C2C(O)CCN2c2nc(C)cc(C(F)(F)F)c2C#N)c1
Second compound 0.0316 µM
  IC50: 796 nM
Second compound 0.1 µM
  IC50: 812 nM
Second compound 0.316 µM
  IC50: 893 nM
Second compound 1 µM
  IC50: > 1000 nM
Second compound 3.16 µM
  IC50: > 1000 nM
Second compound 10 µM
  IC50: 916 nM
Second compound 0.0316 µM, first compound 0.00316 µM
  viability, T/C: 98.9%
Second compound 0.0316 µM, first compound 0.01 µM
  viability, T/C: 106%
[1]
  viability, T/C: 102%
[2]
  viability, T/C: 108%
[3]
  viability, T/C: 92.6%
[4]
  viability, T/C: 39.5%
Second compound 0.1 µM, first compound 0.00316 µM
  viability, T/C: 99.7%
Second compound 0.1 µM, first compound 0.01 µM
  viability, T/C: 99.3%
[5]
  viability, T/C: 102%
[6]
  viability, T/C: 106%
[7]
  viability, T/C: 90%
[8]
  viability, T/C: 40.4%
Second compound 0.316 µM, first compound 0.00316 µM
  viability, T/C: 111%
Second compound 0.316 µM, first compound 0.01 µM
  viability, T/C: 110%
[9]
  viability, T/C: 105%
[10]
  viability, T/C: 110%
[11]
  viability, T/C: 98.6%
[12]
  viability, T/C: 44.4%
Second compound 1 µM, first compound 0.00316 µM
  viability, T/C: 112%
Second compound 1 µM, first compound 0.01 µM
  viability, T/C: 95.2%
[13]
  viability, T/C: 107%
[14]
  viability, T/C: 109%
[15]
  viability, T/C: 105%
[16]
  viability, T/C: 50.4%
Second compound 3.16 µM, first compound 0.00316 µM
  viability, T/C: 116%
Second compound 3.16 µM, first compound 0.01 µM
  viability, T/C: 110%
[17]
  viability, T/C: 109%
[18]
  viability, T/C: 106%
[19]
  viability, T/C: 89%
[20]
  viability, T/C: 56.9%
Second compound 10 µM, first compound 0.00316 µM
  viability, T/C: 109%
Second compound 10 µM, first compound 0.01 µM
  viability, T/C: 115%
[21]
  viability, T/C: 119%
[22]
  viability, T/C: 105%
[23]
  viability, T/C: 102%
[24]
  viability, T/C: 45.6%

## CCCS(=O)(=O)Nc1ccc(F)c(C(=O)c2c[nH]c3ncc(-c4ccc(Cl)cc4)cc23)c1F + Cc1cccc(N(C)C(=O)C2C(O)CCN2c2nc(C)cc(C(F)(F)F)c2C#N)c1
Second compound 0.0316 µM
  IC50: > 10000 nM
Second compound 0.1 µM
  IC50: > 10000 nM
Second compound 0.316 µM
  IC50: > 10000 nM
Second compound 1 µM
  IC50: > 10000 nM
Second compound 3.16 µM
  IC50: > 10000 nM
Second compound 10 µM
  IC50: > 10000 nM
[1]
  viability, T/C: 101%
[2]
  viability, T/C: 110%
[3]
  viability, T/C: 96.8%
[4]
  viability, T/C: 119%
Second compound 0.0316 µM, first compound 3.16 µM
  viability, T/C: 109%
Second compound 0.0316 µM, first compound 10 µM
  viability, T/C: 77.7%
[5]
  viability, T/C: 105%
[6]
  viability, T/C: 102%
[7]
  viability, T/C: 106%
[8]
  viability, T/C: 114%
Second compound 0.1 µM, first compound 3.16 µM
  viability, T/C: 101%
Second compound 0.1 µM, first compound 10 µM
  viability, T/C: 78.7%
[9]
  viability, T/C: 106%
[10]
  viability, T/C: 101%
[11]
  viability, T/C: 97.3%
[12]
  viability, T/C: 97%
Second compound 0.316 µM, first compound 3.16 µM
  viability, T/C: 105%
Second compound 0.316 µM, first compound 10 µM
  viability, T/C: 62.8%
[13]
  viability, T/C: 113%
[14]
  viability, T/C: 118%
[15]
  viability, T/C: 103%
[16]
  viability, T/C: 102%
Second compound 1 µM, first compound 3.16 µM
  viability, T/C: 120%
Second compound 1 µM, first compound 10 µM
  viability, T/C: 61.5%
[17]
  viability, T/C: 101%
[18]
  viability, T/C: 106%
[19]
  viability, T/C: 105%
[20]
  viability, T/C: 103%
Second compound 3.16 µM, first compound 3.16 µM
  viability, T/C: 102%
Second compound 3.16 µM, first compound 10 µM
  viability, T/C: 73.2%
[21]
  viability, T/C: 110%
[22]
  viability, T/C: 102%
[23]
  viability, T/C: 98.3%
[24]
  viability, T/C: 106%
Second compound 10 µM, first compound 3.16 µM
  viability, T/C: 124%
Second compound 10 µM, first compound 10 µM
  viability, T/C: 66.2%
